Assay results published in paper PMC8752738, “A propolis-derived small molecule ameliorates metabolic syndrome in obese mice by targeting the CREB/CRTC2 transcriptional complex” (Nature Communications, 2022).
Values joined by “and” are separate entries in the source; they are usually repeats but may differ in a detail not shown here. Identical values can stand only once. Like-named read-outs stand apart in the source and are kept apart here.

Columns and labels:
[1] = biological target: T1, MYC-CREB-ZIP / FLAG-CRTC2 interaction (Homo sapiens, UniProt P16220); assay: Immunoprecipitation of FLAG-CRTC2-WT with MYC-CREB-ZIP fragment; assay type: biochemical; details: for Relative FLAG/MYC in MYC-IP fraction: Fig 3c replicates, FSK +
T1 construct: expressed in transfected cells; host or cells: HEK293
T1 sequence (P16220 269-327 limits assumed): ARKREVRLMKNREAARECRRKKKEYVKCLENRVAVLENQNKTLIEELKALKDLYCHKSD
From the text: Fig. 3 APC inhibits CRTC2 interacting with CREB-ZIP and reduces acetyltransferase activity of CBP by binding with CREB protein directly. a Isothermal titration calorimetry (ITC) of HIS-CREB protein solution titrated into APC solution. The bottom solid line represents a nonlinear least-squares fitted by a single-site binding model. One of two independent experiments is shown here. b IC50 of APC inhibitory activity detected by CREB–CRTC2 two-hybrid assay in HEK293T cells (n = 3 per treatment, data are represented as mean ± SEM). One of three independent experiments is shown here. c Immunoprecipitation analysis of FLAG-CRTC2-WT recovered by anti-MYC antibody from HEK293 cells co-transfected with plasmids for a Myc-Creb-Zip fragment and the FLAG-Crtc2-Wt, stimulated by FSK (10 nM) for 2-h before harvest. APC (1–10 μM) was included in immunoprecipitation mixtures as indicated. Top represents one of three independent experiments, and the relative gray density of FLAG normalized to MYC in MYC-IP- factions is shown as a bar graph (bottom, n = 3). Data are represented as mean ± SEM; P values were determined by one-way ANOVA followed Dunnett’s multiple comparisons test. d Immunoblotting analysis of the acetyltransferase activity of CBP. The protein levels of H3K27ac and total Histone H3 were determined using specific antibodies from HEK293 cell lysate overexpressing HA-Cbp plasmid. Pretreatment with trichostatin (TSA, 0.5 μM) for 1 h prior to incubation with APC (2, 10 μM) for another 2-h. The top represents one of three independent experiments, and the relative gray density of H3K27ac normalized to total Histone H3 in cell lysate is shown as a bar graph (bottom, n = 3). Data are represented as mean ± SEM; P values were determined by one-way ANOVA followed Dunnett’s multiple comparisons test. ns, P > 0.05; *P < 0.05; **P < 0.01. Sources data for this figure are provided as source data file.

[2] = Tissue distribution assay; assay type: in vivo, mouse; details: for concentration at 8 h / concentration at 4 h / concentration at 2 h: male, C57/BL6, mouse, po, 20 mg/kg
Procedure: Male C57/BL6 mice (18–20 g, n = 3 in each group) were randomly sorted into treatment groups. Being fasted for 12-h, mice were treated with oral gavage of the compound APC (20 mg/kg, in DMSO/0.5% HMPC, 5/95, v/v). After 2, 4, and 8-h of administration, the animals were sacrificed, respectively, the indicated tissues, including plasma, liver, kidney, muscle, brain, spleen, pancreas, white and brown fat, were collected and preserved at −80 °C. The APC content in samples was analyzed with a liquid chromatography-mass spectrometry/mass spectrometry (LC–MS/MS) system and normalized by protein content.

CC(C)=CCc1cc(C=CC(=O)O)cc(CC=C(C)C)c1O [APC, 3,5-diprenyl-4-hydroxycinnamic acid]
FLAG-CRTC2 binding with MYC-CREB-ZIP domain ([1]; APC 1–10 μM): inhibited | Relative FLAG/MYC in MYC-IP fraction ([1]; APC 1 uM): 3.874 and 3.872 and 3.786 | Relative FLAG/MYC in MYC-IP fraction ([1]; APC 5 uM): 3.592 and 3.454 and 3.26 | Relative FLAG/MYC in MYC-IP fraction ([1]; APC 10 uM): 2.4146 and 2.393 and 2.225 | content of APC in the liver compared with other tissues ([2]; 2–8 h after one oral dose 20 mg/kg): highest | APC content in tissue ([2]; Brain, 2H, oral, individual mice, * below the detection line, 2 h after oral dose): 0* ng/g (2×) and 16.430 ng/g | APC content in tissue ([2]; Brain, 4H, oral, individual mice, * below the detection line): 0* ng/g | APC content in tissue ([2]; Brain, 4H, oral, individual mice, * below the detection line, 4 h after oral dose): 1.550 ng/g and 4.810 ng/g | APC content in tissue ([2]; Brain, 8H, oral, individual mice, * below the detection line): 0* ng/g | APC content in tissue ([2]; BrownFat, 2H, oral, individual mice, 2 h after oral dose): 9.800 ng/g and 11.690 ng/g | APC content in tissue ([2]; BrownFat, 4H, oral, individual mice): 9.800 ng/g | APC content in tissue ([2]; BrownFat, 4H, oral, individual mice, 4 h after oral dose): 14.240 ng/g and 144.870 ng/g | APC content in tissue ([2]; BrownFat, 8H, oral, individual mice): 1.740 ng/g and 5.480 ng/g and 3.880 ng/g | APC content in tissue ([2]; Kidney, 2H, oral, individual mice, 2 h after oral dose): 23.340 ng/g and 9.890 ng/g and 11.250 ng/g | APC content in tissue ([2]; Kidney, 4H, oral, individual mice): 9.550 ng/g | APC content in tissue ([2]; Kidney, 4H, oral, individual mice, 4 h after oral dose): 19.740 ng/g and 19.810 ng/g | APC content in tissue ([2]; Kidney, 8H, oral, individual mice): 2.260 ng/g and 4.200 ng/g and 7.700 ng/g | APC content in tissue ([2]; Live (liver), 2H, oral, individual mice, 2 h after oral dose): 703.950 ng/g and 577.440 ng/g | APC content in tissue ([2]; Live (liver), 4H, oral, individual mice): 815.560 ng/g | APC content in tissue ([2]; Live (liver), 4H, oral, individual mice, 4 h after oral dose): 1205.720 ng/g | APC content in tissue ([2]; Live (liver), 8H, oral, individual mice): 287.680 ng/g and 320.280 ng/g | APC content in tissue ([2]; Muscle, 2H, oral, individual mice, 2 h after oral dose): 2.680 ng/g and 4.690 ng/g | APC content in tissue ([2]; Muscle, 4H, oral, individual mice): 13.390 ng/g | APC content in tissue ([2]; Muscle, 4H, oral, individual mice, 4 h after oral dose): 7.190 ng/g | APC content in tissue ([2]; Muscle, 8H, oral, individual mice): 0.000 ng/g and 1.740 ng/g and 1.650 ng/g | APC content in tissue ([2]; Pancreas, 2H, oral, individual mice, 2 h after oral dose): 18.050 ng/g and 11.070 ng/g and 26.740 ng/g | APC content in tissue ([2]; Pancreas, 4H, oral, individual mice): 33.580 ng/g | APC content in tissue ([2]; Pancreas, 4H, oral, individual mice, 4 h after oral dose): 20.040 ng/g and 8.730 ng/g | APC content in tissue ([2]; Pancreas, 8H, oral, individual mice, * below the detection line): 10.890 ng/g and 0* ng/g (2×) | APC content in tissue ([2]; Spleen, 2H, oral, individual mice, 2 h after oral dose): 10.360 ng/g and 16.550 ng/g | APC content in tissue ([2]; Spleen, 4H, oral, individual mice): 12.280 ng/g | APC content in tissue ([2]; Spleen, 4H, oral, individual mice, 4 h after oral dose): 22.450 ng/g | APC content in tissue ([2]; Spleen, 8H, oral, individual mice): 0.000 ng/g and 12.270 ng/g and 10.910 ng/g | APC content in tissue ([2]; WhiteFat, 2H, oral, individual mice, 2 h after oral dose): 10.520 ng/g and 12.290 ng/g | APC content in tissue ([2]; WhiteFat, 4H, oral, individual mice): 42.520 ng/g | APC content in tissue ([2]; WhiteFat, 4H, oral, individual mice, 4 h after oral dose): 32.220 ng/g | APC content in tissue ([2]; WhiteFat, 8H, oral, individual mice): 3.140 ng/g and 8.490 ng/g and 14.550 ng/g | APC-PO-heart-plasma ([2]; heart plasma, PO, 2H, individual mice): 28.92 ng/mL and 27.48 ng/mL | APC-PO-heart-plasma ([2]; heart plasma, PO, 4H, individual mice): 64.03 ng/mL and 39.57 ng/mL | APC-PO-heart-plasma ([2]; heart plasma, PO, 8H, individual mice): 7.56 ng/mL and 19.01 ng/mL and 14.9 ng/mL | concentration at 8 h ([2]; brain, Brain, 8H, oral, individual mice, * below the detection line, read-out: APC content in tissue): 0 ng/g | concentration at 4 h ([2]; brain, brain, 4 h after oral, Figure 5l, Y, read-out: average APC content 4 h after oral): 3.18 ng/g | concentration at 4 h ([2]; brain, brain, 4 h after oral, Figure 5l, size of bubble, read-out: average APC content 4 h after oral): 3.18 ng/g | concentration at 4 h ([2]; brown fat (BF), BF, 4 h after oral, Figure 5l, size of bubble, read-out: average APC content 4 h after oral): 56.3 ng/g | concentration at 4 h ([2]; brown fat, BF, 4 h after oral, Figure 5l, Y, read-out: average APC content 4 h after oral): 56.3 ng/g | concentration at 2 h ([2]; brown fat, BrownFat, 2H, oral, individual mice, read-out: APC content in tissue): 11.1 ng/g | concentration at 2 h ([2]; heart plasma, heart plasma, PO, 2H, individual mice, read-out: APC-PO-heart-plasma): 32.1 ng/mL | concentration at 4 h ([2]; heart plasma, heart plasma, PO, 4H, average, read-out: avarage APC, APC-PO-heart-plasma): 48.5 ng/mL | concentration at 4 h ([2]; heart plasma, heart plasma, PO, 4H, individual mice, read-out: APC-PO-heart-plasma): 41.8 ng/mL | concentration at 4 h ([2]; kidney, kidney, 4 h after oral, Figure 5l, Y, read-out: average APC content 4 h after oral): 16.4 ng/g | concentration at 4 h ([2]; kidney, kidney, 4 h after oral, Figure 5l, size of bubble, read-out: average APC content 4 h after oral): 16.4 ng/g | concentration at 4 h ([2]; liver, LIVER, 4 h after oral, Figure 5l, Y, read-out: average APC content 4 h after oral): 917 ng/g | concentration at 4 h ([2]; liver, LIVER, 4 h after oral, Figure 5l, size of bubble, read-out: average APC content 4 h after oral): 917 ng/g | concentration at 2 h ([2]; liver, Live (liver), 2H, oral, individual mice, read-out: APC content in tissue): 756 ng/g | concentration at 4 h ([2]; liver, Live (liver), 4H, oral, individual mice, read-out: APC content in tissue): 729 ng/g | concentration at 8 h ([2]; liver, Live (liver), 8H, oral, individual mice, read-out: APC content in tissue): 178 ng/g | concentration at 2 h ([2]; liver, avarage APC, Live (liver), 2H, oral, average, heading: avarage APC): 679 ng/g | concentration at 4 h ([2]; liver, avarage APC, Live (liver), 4H, oral, average, heading: avarage APC): 917 ng/g | concentration at 2 h ([2]; muscle, Muscle, 2H, oral, individual mice, read-out: APC content in tissue): 3.77 ng/g | concentration at 4 h ([2]; muscle, Muscle, 4H, oral, individual mice, read-out: APC content in tissue): 6.73 ng/g | concentration at 4 h ([2]; muscle, Muscle, 4 h after oral, Figure 5l, Y, read-out: average APC content 4 h after oral): 9.1 ng/g | concentration at 4 h ([2]; muscle, Muscle, 4 h after oral, Figure 5l, size of bubble, read-out: average APC content 4 h after oral): 9.1 ng/g | concentration at 4 h ([2]; pancreas, panc, 4 h after oral, Figure 5l, Y, read-out: average APC content 4 h after oral): 20.8 ng/g | concentration at 4 h ([2]; pancreas, panc, 4 h after oral, Figure 5l, size of bubble, read-out: average APC content 4 h after oral): 21.2 ng/g | concentration at 4 h ([2]; portal vein plasma, po-portal vein plasma, 4 h after oral, Figure 5l, Y, read-out: average APC content 4 h after oral): 48.5 ng/g | concentration at 4 h ([2]; portal vein plasma, po-portal vein plasma, 4 h after oral, Figure 5l, size of bubble, read-out: average APC content 4 h after oral): 48.5 ng/g | concentration at 2 h ([2]; spleen, Spleen, 2H, oral, individual mice, read-out: APC content in tissue): 15.6 ng/g | concentration at 4 h ([2]; spleen, Spleen, 4H, oral, individual mice, read-out: APC content in tissue): 13.8 ng/g | concentration at 4 h ([2]; spleen, spleen, 4 h after oral, Figure 5l, Y, read-out: average APC content 4 h after oral): 16.2 ng/g | concentration at 4 h ([2]; spleen, spleen, 4 h after oral, Figure 5l, size of bubble, read-out: average APC content 4 h after oral): 16.2 ng/g | concentration at 4 h ([2]; white fat, WF, 4 h after oral, Figure 5l, Y, read-out: average APC content 4 h after oral): 32.7 ng/g | concentration at 4 h ([2]; white fat, WF, 4 h after oral, Figure 5l, size of bubble, read-out: average APC content 4 h after oral): 32.7 ng/g | concentration at 2 h ([2]; white fat, WhiteFat, 2H, oral, individual mice, read-out: APC content in tissue): 18.5 ng/g | concentration at 4 h ([2]; white fat, WhiteFat, 4H, oral, individual mice, read-out: APC content in tissue): 23.2 ng/g
